Measured values from patent US20250177425A1, “SAIKOSAPONIN C AS COMPOSITION FOR TREATING OR PREVENTING AGE-RELATED VASCULAR DISEASES INCLUDING ARTERIOSCLEROSIS” (AGINGTARGET, INC., priority 2022, published 2025).

Experiments:
Type in all cases: cell-based, human
NOS in HUVEC = assay: Mechanism study: NOS Activity Assay Kit with NOS and Sirt1 inhibitors; details: Saikosaponin C 20 μM, 33 mM high glucose 36 hours
Procedure: (§1) Similar to Experimental Example 1, a high-fat diet evaluation system at the cellular level was established. Specifically, […], which are vascular endothelial cells, were pretreated with Saikosaponin C at a concentration of 20 μM for 2 hours, and then treated with high glucose at a concentration of 33 mM for 72 hours (for SA-β-gal staining) or 36 hours (for the analysis of enzyme activity of NOS and Sirt1). Then, SA-β-gal staining, NOS enzyme activity, and Sirt1 enzyme activity were analyzed. To analyze whether or not NOS and Sirt1 protein are involved in the anti-vascular aging effect of Saikosaponin C and the relationship between NOS and Sirt1 protein, L-NG-nitro arginine methyl ester (L-NAME) (5 mM), an inhibitor of NOS, and EX-527 (10 μM), an inhibitor of Sirt1 protein, were used. […] The senescence of vascular endothelial cells was assessed through intracellular SA-β-gal staining (FIG. 8A). The activities of NOS (FIG. 8B) and Sirt1 protein (FIG. 8C) were measured using the NOS Activity Assay Kit and the Sirt1 Activity Assay Kit, respectively.

HUVEC = assay: Mechanism study: SA-β-gal staining with NOS and Sirt1 inhibitors; details: Saikosaponin C 20 μM, 33 mM high glucose 72 hours
Procedure: as §1

Sirt1 in HUVEC = assay: Mechanism study: Sirt1 Activity Assay Kit with NOS inhibitor; details: L-NAME 5 mM, Saikosaponin C 20 μM, 33 mM high glucose 36 hours
Procedure: as §1

Row | Compound | Saikosaponin C-mediated recovery of the reduction in NOS activity caused by high glucose (NOS in HUVEC; EX-527 10 μM) | anti-vascular aging effect of Saikosaponin C (SA-β-gal) after inhibitor pretreatment (HUVEC; EX-527 10 μM) | Saikosaponin C-mediated recovery of the reduction in NOS activity caused by high glucose (NOS in HUVEC; L-NAME 5 mM) | Saikosaponin C-mediated recovery of the reduction in Sirt1 activity caused by high glucose (Sirt1 in HUVEC) | anti-vascular aging effect of Saikosaponin C (SA-β-gal) after inhibitor pretreatment (HUVEC; L-NAME 5 mM)
1 | NC(=O)C1CCCc2c1[nH]c1ccc(Cl)cc21 (centres unmarked) [EX-527] | abolished | significantly abolished |  |  | 
2 | COC(=O)[C@@H](N)CCCNC(=N)N[N+](=O)[O-] [L-NAME, L-NG-nitro arginine methyl ester] |  |  | abolished | did not abolish | significantly abolished
